{"source": "paper PMC4467461", "about": "“Small-molecule activation of SERCA2a SUMOylation for the treatment of heart failure” (Nature Communications, 2015)", "test_system": "isolated adult cardiomyocytes", "experiment": "Cardiomyocyte contractility and calcium transient, video-based edge-detection system (IonOptix)", "type": "cell-based, Sprague–Dawley rats", "procedure": "Figure 1 N106 increases SERCA2a’s cellular activity and SUMOylation in adult cardiomyocytes. In-vitro characterization of activators of SERCA2a SUMOylation. Cell-based screening of small molecules identified one promising compound. Adult ventricular cardiomyocytes were isolated from Sprague–Dawley rats and treated with small molecules on dose-dependent manner for 24 h. DMSO-treated cardiomyocytes were used as a negative control. (a) Chemical structure of SERCA2a SUMOylation activator. N106, N-(4-methoxybenzo[d]thiazol-2-yl)-5-(4-methoxyphenyl)-1,3,4-oxadiazol-2-amine. (b-g) The effects of N106 compound in cardiomyocyte contractility and calcium transient. The dose-dependent effects of N106 compound presented on peak shortening, the time to maximal departure velocity, the time to maximal return velocity, calcium ratio, decay time constant (τ) and the time to 90% baseline (t90) fluorescence in cardiomyocytes were assessed using a video-based edge-detection system (IonOptix Inc.). n=25 cardiomyocytes from each three of hearts per condition. (h) The effects of N106 compound on the ATPase activity of SERCA2a. The ATPase activity were measured at 25 °C in 50 mM MOPS, 100 mM KCl, 5 mM MgCl2, 1 mM […] at pCa 5.0 by using a coupled enzyme system consisting of pyruvate kinase and lactate dehydrogenase, and monitoring the oxidation of the reduced form of NADH at […]. The enzyme activity was determined by using same set of cardiomyocytes. (i) The effect of N106 compound for the formation of SUMOylated SERCA2a was determined using the same set of cardiomyocytes. Endogenous SERCA2a SUMOylation was detected by immunoprecipitation with anti-SERCA2a and then western blotting with anti-SUMO-1 antibodies. The experiments shown are representative of three independent experiments with similar results. (j) The effect of N106 compound on global SUMOylation was measured by western blot analysis with an anti-SUMO-1 antibody in the same set of cardiomyocytes. The experiments shown are representative of three independent western blottings. Data are represented as mean±s.e.m. (n=3 mice hearts per each condition). Data are represented as mean±s.e.m. *P≤0.05; **P<0.001 (Student’s t-test) from DMSO control.\nFigure 2 Time-course experiments with N106 in isolated adult cardiomyocytes. (a–f) Adult ventricular cardiomyocytes were isolated from Sprague–Dawley rats and treated with 10 μM of N106 compound over a time course as indicated. The time course of the contractile response to N106 was determined as peak shortening (a), the time to maximal velocity of sarcomere shortening (b) and re-lengthening (c). The time-course changes in calcium kinetic parameters such as calcium transient (d), decay time constant (e) and the time to 90% baseline fluorescence in cardiomyocytes (f) were detected. n=25 cardiomyocytes from each three of hearts per condition. DMSO was used as vehicle control. The time courses of the ATPase activity of SERCA2a (g), level of SUMOylated SERCA2a (h) and level of SUMO-1 conjugates (i) were determined by using the same set of cardiomyocytes (two independent experiments). Data are represented as mean±s.e.m. *P≤0.05; **P<0.001 (Student’s t-test) from DMSO control.\nVentricular heart muscle cells were isolated from 180∼250 g male Sprague–Dawley rats as described. The hearts were perfused sequentially with low-calcium buffer, enzyme solutions containing collagenases and proteases, and high-potassium solution. Next, the hearts were minced, filtered and resuspended in high-potassium solution. The cardiomyocytes were plated on laminin-coated plates and cultured in medium M199 (Life Technologies, CT, USA) containing proper supplements. […]", "key": {"[1]": {"settings": "screen of eight compounds, 10 μM, 24 h"}}, "data": [{"smiles": "COc1ccc(-c2nnc(Nc3nc4c(OC)cccc4s3)o2)cc1", "note": "[Compound N106, N-(4-methoxybenzo[d]thiazol-2-yl)-5-(4-methoxyphenyl)-1,3,4-oxadiazol-2-amine]", "values": [{"measurement": "inotropic effect in isolated cardiomyocytes", "setting": "10 μM, 24 h", "result": "positive inotropic effects"}, {"measurement": "positive effect on cardiomyocytes contractility", "setting": "at over 50 μM concentration", "result": "no longer observed"}, {"measurement": "Calcium-transient amplitude", "setting": "dose–response, 10 nM, 24 h", "result": "0.18±0.01"}, {"measurement": "exponential decay of time constant, τ", "setting": "dose–response, 10 nM, 24 h", "result": "0.20 ± 0.01", "unit": "s"}, {"measurement": "maximal velocities of cell contraction", "setting": "dose–response, 10 nM, 24 h", "result": "−1.93±0.08", "unit": "μm s^−1"}, {"measurement": "maximal velocities of cell relaxation", "setting": "dose–response, 10 nM, 24 h", "result": "1.76±0.08", "unit": "μm s^−1"}, {"measurement": "peak shortening", "setting": "dose–response, 10 nM, 24 h", "result": "7.63±0.48", "unit": "%"}, {"measurement": "time for 90% decay, t90", "setting": "dose–response, 10 nM, 24 h", "result": "0.47 ± 0.02", "unit": "s"}, {"measurement": "Calcium-transient amplitude", "setting": "dose–response, 100 nM, 24 h", "result": "0.21±0.01"}, {"measurement": "exponential decay of time constant, τ", "setting": "dose–response, 100 nM, 24 h", "result": "0.20 ± 0.01", "unit": "s"}, {"measurement": "maximal velocities of cell contraction", "setting": "dose–response, 100 nM, 24 h", "result": "−2.17±0.10", "unit": "μm s^−1"}, {"measurement": "maximal velocities of cell relaxation", "setting": "dose–response, 100 nM, 24 h", "result": "1.98±0.12", "unit": "μm s^−1"}, {"measurement": "peak shortening", "setting": "dose–response, 100 nM, 24 h", "result": "8.36±0.56", "unit": "%"}, {"measurement": "time for 90% decay, t90", "setting": "dose–response, 100 nM, 24 h", "result": "0.44 ± 0.02", "unit": "s"}, {"measurement": "Calcium-transient amplitude", "setting": "dose–response, 10 μM, 24 h", "result": "0.19±0.00"}, {"measurement": "exponential decay of time constant, τ", "setting": "dose–response, 10 μM, 24 h", "result": "0.16 ± 0.008", "unit": "s"}, {"measurement": "maximal velocities of cell contraction", "setting": "dose–response, 10 μM, 24 h", "result": "−2.30±0.19", "unit": "μm s^−1"}, {"measurement": "maximal velocities of cell relaxation", "setting": "dose–response, 10 μM, 24 h", "result": "1.99±0.15", "unit": "μm s^−1"}, {"measurement": "peak shortening", "setting": "dose–response, 10 μM, 24 h", "result": "9.10±0.52", "unit": "%"}, {"measurement": "time for 90% decay, t90", "setting": "dose–response, 10 μM, 24 h", "result": "0.35 ± 0.006", "unit": "s"}, {"measurement": "peak shortening", "setting": "[1]", "result": "12.03±0.80", "unit": "%"}, {"measurement": "transient calcium decay τ", "setting": "[1]", "result": "0.18 ± 0.02", "unit": "s"}, {"measurement": "calcium amplitude (ratio 360/380 nm)", "setting": "time course, 10 μM, 10 min", "result": "0.19±0.01"}, {"measurement": "maximal velocities of cell contraction", "setting": "time course, 10 μM, 10 min", "result": "−1.97±0.04", "unit": "μm s^−1"}, {"measurement": "maximal velocities of cell relaxation", "setting": "time course, 10 μM, 10 min", "result": "1.12±0.11", "unit": "μm s^−1"}, {"measurement": "peak shortening", "setting": "time course, 10 μM, 10 min", "result": "9.65±0.27", "unit": "%"}, {"measurement": "t90", "setting": "time course, 10 μM, 10 min", "result": "0.40 ± 0.03", "unit": "s"}, {"measurement": "τ", "setting": "time course, 10 μM, 10 min", "result": "0.17 ± 0.02", "unit": "s"}, {"measurement": "maximal velocities of cell contraction", "setting": "time course, 10 μM, 1 h", "result": "−1.92±0.09", "unit": "μm s^−1"}, {"measurement": "maximal velocities of cell relaxation", "setting": "time course, 10 μM, 1 h", "result": "1.67±0.15", "unit": "μm s^−1"}, {"measurement": "peak shortening", "setting": "time course, 10 μM, 1 h", "result": "8.60±0.23", "unit": "%"}, {"measurement": "t90", "setting": "time course, 10 μM, 1 h", "result": "0.35 ± 0.01", "unit": "s"}, {"measurement": "τ", "setting": "time course, 10 μM, 1 h", "result": "0.14 ± 0.02", "unit": "s"}, {"measurement": "calcium amplitude (ratio 360/380 nm)", "setting": "time course, 10 μM, 1 h (P=0.17)", "result": "0.17±0.01"}, {"measurement": "calcium amplitude (ratio 360/380 nm)", "setting": "time course, 10 μM, 24 h", "result": "0.18±0.008"}, {"measurement": "maximal velocities of cell contraction", "setting": "time course, 10 μM, 24 h", "result": "−2.3±0.19", "unit": "μm s^−1"}, {"measurement": "maximal velocities of cell relaxation", "setting": "time course, 10 μM, 24 h", "result": "1.99±0.15", "unit": "μm s^−1"}, {"measurement": "peak shortening", "setting": "time course, 10 μM, 24 h", "result": "8.90±0.38", "unit": "%"}, {"measurement": "t90", "setting": "time course, 10 μM, 24 h", "result": "0.35 ± 0.006", "unit": "s"}, {"measurement": "τ", "setting": "time course, 10 μM, 24 h", "result": "0.16 ± 0.008", "unit": "s"}]}]}
